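Step 1: Grow cells in 96-well plates. Step 2: Expose to compound for 48 hours at 5 concentrations. Step 3: Interpolate endpoints linearly; if unreached, use highest concentration. GI50: concentration for 50% inhibition of growth. At the TGI there is no net growth.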
Legend:
Experiment in all cases: NCI anticancer screen, dose series, 48 h
[1] = test system: 786-0 renal
[2] = test system: HCC-2998 colon
[3] = test system: HS 578T breast
[4] = test system: K-562 leukemia
[5] = test system: MDA-MB-435
[6] = test system: NCI-H226 lung
[7] = test system: NCI-H460 lung
[8] = test system: OVCAR-5 ovarian
[9] = test system: SK-MEL-2 melanoma
[10] = test system: U251 CNS

Structure (SMILES) | GI50 [1] [µM] | TGI [1] [µM] | GI50 [2] [µM] | TGI [2] [µM] | GI50 [3] [µM] | TGI [3] [µM] | GI50 [4] [µM] | TGI [4] [µM] | GI50 [5] [µM] | TGI [5] [µM] | GI50 [6] [µM] | TGI [6] [µM] | GI50 [7] [µM] | TGI [7] [µM] | GI50 [8] [µM] | TGI [8] [µM] | GI50 [9] [µM] | TGI [9] [µM] | GI50 [10] [µM] | TGI [10] [µM]
O=C(Nc1ccc(Cl)cc1)c1cc2c(cc1O)[nH]c1ccccc12 | 2.76 | 7.54 | 2 | 5.27 | 3.08 | 14.5 | 4.28 | > 100 | 2.12 | 5.85 | 2.52 | 9.46 | 3.11 | 10.2 | 3.72 | 16.2 | 2.47 | 6.98 | 3.18 | 11.3
CC(=N\O)/C(C)=N/O.CC(=N\O)/C(C)=N/O.CC(=N\O)/C(C)=N/O.CC(=N\O)/C(C)=N/O.[Cu].[Cu] | 19.8 | 36.8 | 16.8 | 30.5 | 29.6 | 65.9 | 34.3 | 91.9 | 18.5 | 33.7 | 23.5 | 39.2 | 20.4 | 38.5 | 19.3 | 34 | 17.4 | 31.4 | 17.6 | 31.3
NS(=O)(=O)c1ccc(C2C3=C(CCCC3=O)OC3=C2C(=O)c2ccccc2C3=O)cc1 (stereo not given) | 1.64 | 3.02 | 1.47 | 3.11 | 1.27 | 9.4 | 0.46 | 2.35 | 0.19 | 0.357 | 1.75 | 3.36 | 0.589 | 2.12 | 1.7 | 3.51 | 0.604 | 2.38 | 0.318 | 1.05
Nc1nc2c(c3ncccc13)C(c1ccc(Cl)c(Cl)c1)Cc1ncccc1-2 (stereo not given) | 3.49 | 13.4 | 5.62 | 19.1 | 3.62 | 19.2 | 2.67 | 17.3 | 0.867 | 2.95 | 16.6 | 41.5 | 3.47 | 13 | 6.51 | 24.2 | 3.79 | 15.8 | 3.78 | 13.9
O=c1[nH]cnc2c1nnn2C1OC(CO)C(O)C1O (stereo not given) | 2.58 | > 100 | 2.65 | 24.5 | 4.27 | 69.8 | 3.97 | > 100 | 3.51 | > 100 | 4.88 | > 100 | 1.11 | > 100 | 26.6 | > 100 | 12.3 | > 100 | 20.4 | > 100
